Values after ≈ are worked out from the molar mass of the structure shown.

For this data set the following is noted: buffer; pH 7.4; 200.0 µM.
In the case of `CCCC(C(=O)OCCN(CC)CC)(c1ccccc1)c1ccccc1.Cl`, the solubility (kinetic) – broadly, the concentration staying in solution when a stock, usually in DMSO, is diluted into the medium – was 47.4 µg/mL.

`Nc1ccccc1C(=O)NCc1ccco1` registered a kinetic solubility of more than 32.4 µg/mL.

For the compound `O=C(NCc1ccccn1)Nc1ccccc1F`, the solubility (kinetic) is more than 36.8 µg/mL.

In the case of `CN1CCN(c2ccc(NC(=O)c3ccc(Cl)cc3)cn2)CC1`, the kinetic solubility was more than 49.6 µg/mL.

For the compound `COc1ccc(N(Cc2cc3ccc(C)cc3[nH]c2=O)C(=O)C2CCCO2)cc1` (stereo not drawn), the kinetic solubility was 10.1 µg/mL (≈ 25.7 µM).

Regarding `Cc1ccccc1OC(C)C(=O)NCCCN1CCOCC1` (stereo not drawn), the kinetic solubility is 41.5 µg/mL (≈ 135 µM). Against the preceding compound, the solubility kinetic is about 4.1-fold higher.

The compound `CCNC(C(=O)c1c[nH]c2c(CC)cccc12)c1ccccc1` (stereo not drawn) registered a solubility (kinetic) of 43.2 µg/mL (≈ 141 µM). This solubility kinetic and that of the compound before are within 1.5-fold of each other.

`CC(C)CC(=O)Nc1cccc(-c2nc3ncccc3o2)c1`: the solubility (kinetic) was 31.8 µg/mL (≈ 108 µM).

The compound `O=C(c1ccc([N+](=O)[O-])o1)N1CCCCCC1` showed a solubility (kinetic) of more than 35.7 µg/mL.

Take `Cc1cc(C)cc(NC(=O)c2ccc3c(c2)CCN3S(C)(=O)=O)c1`: the kinetic solubility was found to be 0.5 µg/mL (≈ 1.45 µM).

In turn, `O=C(NC1=NCCS1)C1CCN(S(=O)(=O)c2cc([N+](=O)[O-])ccc2Cl)CC1` registered a solubility (kinetic) of 20.8 µg/mL (≈ 48 µM).

In turn, `Cc1ccc(CNC(=O)c2c(-c3ccccc3)noc2C)cc1` registered a kinetic solubility of 2.1 µg/mL (≈ 6.85 µM).

Take `COc1cc(C2NC(=O)CCC2[N+](=O)[O-])cc(OC)c1OC` (stereo not drawn): the kinetic solubility was more than 46.5 µg/mL.

For `CC1CC(O)(CC(O)(c2ccccc2)c2ccccc2)C(C)CN1C` (stereo not drawn), the kinetic solubility is more than 50.9 µg/mL.

In turn, `Cc1cc(Oc2ncccc2[N+](=O)[O-])c2cc(Cl)ccc2n1` returned a solubility (kinetic) of less than 0.2 µg/mL.

`CC(C)(C)C(=O)NC1CC2CCCC(C1)N2C(=O)Nc1ccccc1` (stereo not drawn) gave a kinetic solubility of 12.8 µg/mL (≈ 37.3 µM).

In the case of `NC(=O)Cn1c(-c2nonc2N)nc2ccccc21`, the solubility (kinetic) is more than 38.7 µg/mL.

`Cc1ccc2[nH]c(=S)n(-c3cccnc3)c(=O)c2c1`: the solubility (kinetic) was 2.8 µg/mL (≈ 10.4 µM).

For `CC(=O)c1ccc(NC(=O)N2CCc3ccccc3C2)cc1`, the kinetic solubility worked out at 34.3 µg/mL (≈ 117 µM).

`CSc1nc2ccc(C)cc2c(=O)n1-c1cccnc1` yielded a solubility (kinetic) of 8.1 µg/mL (≈ 28.6 µM).

Regarding `Clc1cc2nc[nH]c2cc1Cl`, the solubility (kinetic) is more than 28.1 µg/mL.

Consider `Cc1ccc(S(=O)(=O)N2CCCC(N3CCOCC3)C2)cc1Cl` (stereo not drawn), for which the solubility (kinetic) was more than 53.8 µg/mL.

In turn, `COc1ccc(CCNC(=O)c2ccccc2C(=O)NCCc2ccc(OC)cc2)cc1` returned a kinetic solubility of 2.2 µg/mL (≈ 5.09 µM).

Compound `Cc1sc2nc(CC(=O)N3CCCC3)[nH]c(=O)c2c1C` displayed a kinetic solubility of more than 43.7 µg/mL.

For the compound `O=c1[nH]c(O)c(C=Nc2ccc(F)c(Cl)c2)c(=O)[nH]1`, the solubility (kinetic) is 14 µg/mL (≈ 49.4 µM).

Take `Cc1ccc(-c2csc(NC(=O)c3cnccn3)n2)cc1C`: the kinetic solubility is less than 0.2 µg/mL.

Take `Cc1ccc(OCC(O)Cn2nc(C)cc2C)cc1` (stereo not drawn): the solubility (kinetic) is more than 39.1 µg/mL.

Regarding `CCCC(=O)Nc1nc(-c2ccc(Cl)s2)cs1`, the kinetic solubility was determined as 1.5 µg/mL (≈ 5.23 µM).

As to `COc1ccc(NC(=S)N(CCO)Cc2ccccc2)cc1`, the solubility (kinetic) was 44.7 µg/mL (≈ 141 µM).

On to `Fc1cccc(F)c1-c1nc(-c2ccncc2)no1`, for which the kinetic solubility was 14.7 µg/mL (≈ 56.7 µM). This solubility kinetic lies about 3-fold lower than the previous one.

For `COc1ccccc1N1CCN(C(=O)c2cccs2)CC1`, the kinetic solubility was more than 45.4 µg/mL.

On to `CC1(C)OC(=O)C(=CNC(CO)C(=O)O)C(=O)O1` (stereo not drawn), for which the kinetic solubility is more than 38.9 µg/mL.

For `NC(=O)CN1C(=O)C(=O)N(Cc2ccccc2)C1=O`, the solubility (kinetic) was 38.7 µg/mL (≈ 148 µM).

In turn, `Cc1cc2nc(C(C)(C)C)cc(N)n2n1` registered a kinetic solubility of more than 30.6 µg/mL.

Consider `CCOc1ccccc1NC(=S)NC(=O)C1CCCCC1`, for which the solubility (kinetic) came to 0.6 µg/mL (≈ 1.96 µM).

Regarding `CC(=O)Nc1ccc(NC(=O)C(C)OC(=O)c2ccc(S(=O)(=O)N3CCCCC3)cc2)cc1` (stereo not drawn), the solubility (kinetic) was found to be 6.4 µg/mL (≈ 13.5 µM).

In the case of `Cc1ccc(N=C2C(=O)Nc3ccc(Br)cc32)cc1`, the solubility (kinetic) is 1.1 µg/mL (≈ 3.49 µM).

Regarding `COCc1cc(=O)[nH]c(SCC(=O)c2ccccc2)n1`, the kinetic solubility was more than 43.6 µg/mL.

Regarding `CC1CCCC(NC(=O)C2COc3ccccc3O2)C1C` (stereo not drawn), the kinetic solubility was determined as 17.2 µg/mL (≈ 59.4 µM).

Consider `O=C(O)c1ccc(NC(=O)c2cc3ccccc3o2)cc1`, for which the solubility (kinetic) was more than 42.2 µg/mL.

`COc1ccccc1OCC(=O)Nc1ccncc1` gave a kinetic solubility of more than 38.7 µg/mL.

For `Cc1cccc(N)c1-c1c(C)cccc1N`, the solubility (kinetic) was more than 31.8 µg/mL.

`CSc1nc(-c2ccc(C)cc2)nc(N)c1C#N` gave a solubility (kinetic) of less than 0.1 µg/mL.

Compound `CC1(C)Cc2c(C#N)c(NCCO)nc(-c3ccco3)c2CO1` gave a solubility (kinetic) of 37.4 µg/mL (≈ 119 µM).

On to `Cc1cccc(NC(=O)c2cc(=O)c3ccccc3o2)c1`, for which the kinetic solubility came out at 1.9 µg/mL (≈ 6.8 µM).

As for `CC1(C)CC(=O)c2cnc(N3CCc4ccccc43)nc2C1`, the kinetic solubility was found to be 0.4 µg/mL (≈ 1.36 µM).

`CC1CCCC(C)N1C(=O)COC(=O)c1ccco1` (stereo not drawn): the solubility (kinetic) is more than 39.8 µg/mL.

With `CCOC(=O)C1=C(Nc2ccc(Cl)cc2)OCC1=O`, the kinetic solubility is more than 42.3 µg/mL.

`Cc1ccc(N2C(=O)CC(Sc3cccs3)C2=O)cc1` (stereo not drawn) displayed a solubility (kinetic) of 35 µg/mL (≈ 115 µM).

Turning to `CC(NCC(=O)Nc1ccccc1C(=O)NC1CC1)c1cccs1` (stereo not drawn), the solubility (kinetic) was more than 51.5 µg/mL.

In turn, `CCOc1nc(Nc2ccc(Cl)cc2)nc(OCC)n1` gave a solubility (kinetic) of 3.5 µg/mL (≈ 11.9 µM).

Compound `CCCCCCCc1c(O)nc(SCC(=O)O)[nH]c1=O` came in with a solubility (kinetic) of 43.9 µg/mL (≈ 146 µM).

Compound `COc1ccccc1NC(=O)NC(=O)c1ccccc1` had a kinetic solubility of 0.4 µg/mL (≈ 1.48 µM).

These data come from PubChem BioAssay AID1996.
